From patent publication US6368788B1 (priority 1987, dated 2002)
Where two headings read alike, the source gives them in different places.

Experiments:
[1] = with antibiotic therapy
influenza [2] = details: vs control group
Procedure: Sixty-six (66) hospitalized patients between the ages 18-20 years with confirmed influenza infections were admitted into the trial. Of the patients, 12 were determined to be severely infected, and the remaining 54 seriously infected and in need of hospitalization.

Burns = test: Burns; parameters: species or system human; details: in vivo
Procedure: A total of 23 patients with cutaneous burns were treated with L-Glu-L-Trp either im or intranasally. Fourteen patients in a control group were treated using conventional methods.

Shigella dysenterae = test: Shigella dysentery; parameters: species or system human; details: in vivo
Excerpt: A total 125 patients infected with Shigella dysentery were examined. Fifty-three patients constituted the control group.

influenza [3] = test: Influenza treatments (Protocol E); parameters: species or system human; details: in vivo
Procedure: One hundred fifty-six patients (156) with influenza were treated with 100 μg L-Glu-L-Trp im or 1 μg/kg intranasally on each of 5-10 consecutive days. A control group constituted with entry of 82 influenza patients who remained untreated.

influenza [4] = test system: influenza; parameters: species or system human; details: in vivo
[5] = Pleuritis / suppurative lung diseases, combined antibiotic therapy (Protocol K); assay type: in vivo, human
Procedure: Efficacy of L-Glu-L-Trp in combined antibiotic therapy was evaluated in twelve male patients (aged 18 to 45) with suppurative lung diseases that were poorly responsive to antibiotic therapy and accompanied by diffuse pleuritis, disseminated intravascular coagulation (DIC), pleural effusions, and fever. […] L-Glu-L-Trp was administered to these patients as a treatment of nearly last resort, and as part of the ongoing (unsuccessful) regimen of broad spectrum antibiotic therapy: i.e., 200 μg of L-Glu-L-Trp was administered im daily over a period of 5-7 days. […] In addition, T-cell counts in peripheral blood increased and IgG, IgM, and IgA increased (TABLE 17) and C-reactive protein levels fell (TABLE 16).

[6] = test system: upper respiratory infections; test: Prophylaxis of respiratory infections in polar explorers; assay type: in vivo, human; details: intranasal 1 μg/kg, 3 days
[7] = test system: Mycobacterium tuberculosis; parameters: species or system human; details: in vivo
Staphylococci = test: Antibiotic sensitivity (doubling-dilution, MIC-2000) of patient isolates before and after Stage 1; assay type: cell-based
Procedure: Antibiotics were administered according to established dosages and routes: i.e., penicillin, Ampicillin, oxacillin, tetracycline, erythromycin, garamycin; administered by intramuscular route. Antibiotics were chosen according to the antibiotic sensitivity of the Staphylococci isolated from the respective patients. (Antibiotic sensitivity was determined by testing staphylococcal isolates for their sensitivity in an antibiotic sensitivity doubling-dilution assay with the aid of the semi-automatic MIC-2000 system, Dynatech, USA).
Staphylococci were isolated from patients before and after treatment in Stage 1 with L-Glu-L-Trp in order to determine whether a favorable reversal of T-lymphocyte immunodeficiency might lead to a change in the antibiotic sensitivity. The isolated bacterial colonies following Stage I were typed as follows: namely, in 16 patients S. aureus, in 34, S. epidermidis, in 2 saprophytic Staphylococci. In all cases the same types of Staphylococci were isolated following treatment with L-Glu-L-Trp, but in 4 patients the predominant Staphylococci in the isolates changed from S. aureus to S. epidermidis (n=2), and saprophytic Staphylococci (n=2).
Antibiotic sensitivity of Staphylococci were determined by doubling-dilution methods with the aid of the semiautomatic MIC-2000 system (Dynatech, USA).

[8] = Complications of pregnancy: toxemia (Protocol B); parameters: species or system human; details: in vivo
Procedure: L-Glu-L-Trp was administered im at 100 μg daily, or 1 μg/kg intranasally, for 5-10 days.

[9] = test system: peripheral blood lymphocytes; test: Protocol A3 Group 2: pyoderma in patients with SLE; assay type: in vivo, human
Excerpt: Group 2 constituted 22 patients with diagnosed forms of systemic lupus erythematosus (SLE): ie., 14 males and 8 females ranging in age from 21 to 62 years of age. The time since presentation with a diagnosis of SLE in this patient population ranged from several months to 18 years. All SLE patients in this trial had dermal manifestations of lupus erythematosus that included discoid disseminated forms of the disease. All patients had experienced chronic and recurrent episodes of pyoderma, and all had previously received conventional therapy, including use of antibiotics, delagil, and external corticosteroid ointments without effect. Patients in Group 2 were randomly divided into two treatment groups, the first consisting of 13 patients (9 men and 4 women) treated with L-Glu-L-Trp according to Therapy A, below, and the second consisting of 9 patients (5 men and 4 women) treated (as a control) according to Therapy B, ie., conventional therapeutic methods using anti-malarial preparations and vasoactive agents according to standard dosages and schedules.
In treatment Protocol A, all patients received L-Glu-L-Trp in combination with antibiotics. […]
Local antibiotics were administered as follows: Ampicillin (4), oxacillin (4), Levomycetin (1), tetracycline (9), Rondomycin (2), deoxycycline (8), cephalexin (2), and Rifampicin (1).

[10] = Group 2 pyoderma in SLE, after L-Glu-L-Trp Therapy (n = 13)

L-Glu-L-Trp
Clinical outcome [1]: accelerated healing of chronic and acute ear infections
Lower incidence of respiratory complications (influenza [2]): 3.5 times
Clinical outcome (Burns): accelerated rate of wound healing
Clinical outcome (Shigella dysenterae): normalization of fever, reduction of toxemia
Clinical outcome (influenza [3]): accelerated alleviation of symptoms associated with influenza infection
Clinical outcome (influenza [4]): significantly decreased the incidence of sickness in the vaccinated subjects for a period of 12 months
Clinical outcome ([5]; 200 μg im daily 5-7 days): A dramatic change in the clinical picture was observed in all 12 patients
ATIII ([5]; After L-Glu-L-Trp Therapy): 98.3 ± 15.3 % of normal
Clotting time (citrated whole blood-recalcified) ([5]; After L-Glu-L-Trp Therapy): 146.5 ± 28.2
FDP ([5]; After L-Glu-L-Trp Therapy): 21.7 ± 0.8 µg/mL
Fibrinogen Concentration ([5]; After L-Glu-L-Trp Therapy): 4.7 ± 1.2 g/L
Fibrinolytic Activity ([5]; After L-Glu-L-Trp Therapy): 181.2 ± 52.2 min
Kaolin-Cephalin clotting time ([5]; After L-Glu-L-Trp Therapy): 61.7 ± 6.1
Clinical outcome [6]: prevented the occurrence of upper respiratory infections
Clinical outcome at 2 months [7]: disappearance of toxic symptoms, a resorption of pulmonary infiltrates, and a resolution of pulmonary cavities
Considerable Improvement, % of patients [7]: 24%
Considerable Improvement, No. of patients [7]: 9
Improvement, % of patients [7]: 73%
Improvement, No. of patients [7]: 27
No Change, % of patients [7]: 3%
No Change, No. of patients [7]: 1
Patients with closure of degeneration foci and cavities in the lungs [7]: 35 of the 37
Patients with “improvement” [7]: 27
Response rate [7]: 97%
Patients with decreased MIC of antibiotic for isolated bacteria (Staphylococci; conclusion of Stage 1): 78%
Increase in antibiotic sensitivity of isolates (Staphylococci; in certain cases): > 100 fold
Clinical outcome [8]: normalized blood pressure
B-Lymphocytes [9, 10]: 0.16 ± 0.01 ×10^9/L
B-Lymphocytes % Normal Value [9, 10]: (52%)
B-Lymphocytes (%) [9, 10]: 6.8 ± 0.9%
Basophils (%) [9, 10]: 0.1 ± 0.1%
Blast Transformation, Con-A [9, 10]: 64.1 ± 6.5 % of PBL
Blast Transformation, PHA [9, 10]: 47.4 ± 3.5 % of PBL
Eosinophils (%) [9, 10]: 2.2 ± 0.1%
Erythrocytes [9, 10]: 4.7 ± 0.1 10^12/L
IgA [9, 10]: 2.85 ± 0.32 g/L
IgA % Normal Value [9, 10]: (150%)
IgG [9, 10]: 14.8 ± 1.27 g/L
IgG % Normal Value [9, 10]: (137%)
IgM [9, 10]: 0.92 ± 0.12 g/L
IgM % Normal Value [9, 10]: (58%)
Leukocytes [9, 10]: 5.74 ± 0.12 ×10^9/L
Leukocytes % Normal Value [9, 10]: (86%)
Lymphocytes [9, 10]: 2.17 ± 0.21 ×10^9/L
Lymphocytes % Normal Value [9, 10]: (78%)
Lymphocytes, % [9, 10]: 36.4 ± 2.3%
Monocytes, % [9, 10]: 8.0 ± 0.7%
Neutrophils [9, 10]: 3.5 ± 0.7 ×10^9/L
Neutrophils, % [9, 10]: 55.3 ± 4.2%
Neutrophils, % Normal Value [9, 10]: (106%)
T-Lymphocytes [9, 10]: 1.13 ± 0.07 ×10^9/L
T-Lymphocytes % Normal Value [9, 10]: (66%)
T-Lymphocytes (%) [9, 10]: 44.3 ± 2.7%
T-helper [9, 10]: 0.87 ± 0.12 ×10^9/L
T-helper % Normal Value [9, 10]: (66%)
T-helper (%) [9, 10]: 26.5 ± 2.7%
T-suppressor [9, 10]: 0.53 ± 0.03 ×10^9/L
T-suppressor % Normal Value [9, 10]: (136%)
T-suppressor (%) [9, 10]: 21.2 ± 3.7%
Clinical outcome ([9]; human, in vivo): leads to a positive clinical effect and resolution of dermal rashes
